# Assay results from patent publication US20230310432A1 (JULIUS-MAXIMILIANS-UNIVERSITÄT WÜRZBURG, priority 2017, published 2023).
# Assays:
# [1] = system: CD8+ T cells expressing a ROR1 CAR with 4-1BB costimulatory domain; assay: Bioluminescence-based cytotoxicity assay, K562/ROR1 target cells; type: cell-based, human
# [2] = system: CD8+ T cells expressing a CD19 CAR with CD28 costimulatory domain; assay: Cytokine production and secretion (IFN-γ, IL-2 ELISA), co-culture with K562/CD19; type: cell-based, human; conditions: dasatinib ≥50 nM; 20 h
# Experimental: Cytokine secretion: 5×10^4 T-cells were plated in duplicate or triplicate wells with target cells at an E:T ratio of 4:1 (K562/ROR1, K562/CD19, RCH-ACV), and IFN-γ and IL-2 were measured by ELISA, or cytokine panels were measured by multiplex cytokine immunoassay (Luminex) in supernatant removed after 20-h incubation. Specific cytokine production was calculated by subtracting the amount of cytokines released by unstimulated CAR-T cells from the amount of cytokines released after antigen-specific stimulation. The remaining cytokine secretion in % as shown in the diagrams is normalized to CAR-T cells in the absence of dasatinib-treatment (100%).
# CAR-T cells were co-cultured with K562 that the inventors had transduced with either CD19 (for testing CD19 CAR-T cells) or ROR1 (for testing ROR1 CAR-T cells). Dasatinib was added to the assay medium at the beginning of the co-culture assay. ELISA was performed to detect IFN-γ and IL-2 in supernatant removed from the co-culture.
# [3] = system: CD8+ T cells expressing a SLAMF7 CAR with CD28 costimulatory domain; assay: Bioluminescence-based cytotoxicity assay, K562/SLAMF7 target cells; type: cell-based, human
# [4] = system: CD8+ CD19 CAR/4-1BB T cells; assay: Apoptosis assay (Annexin-V/7-AAD) after co-culture with K562/CD19; type: cell-based, human
# Experimental: CD8^+ CD19 CAR-T cells were cultured in the presence of 50 U IL-2 either alone or with irradiated (80 Gy) K562/CD19 tumor cells at an E:T ratio of 4:1. […] After 24 hours of co-culture, co-cultures were labeled with anti-CD8 mAb, 7AAD and AnnexinV according to the manufacturer's instructions (BD Biosciences, Heidelberg, Germany), and analyzed by flow cytometry to evaluate the amount of apoptotic and dead T cells.
# At the end of the co-culture, the inventors performed staining with Annexin-V and 7-AAD to determine the percentage of live CAR-T cells (Annexin-V-negative/7-AAD-negative), CAR-T cells undergoing apoptosis (Annexin-V-positive/7-AAD-negative), and dead CAR-T cells (Annexin-V-positive/7-AAD-positive).
# [5] = system: CD8+ T cells expressing a ROR1 CAR with 4-1BB costimulatory domain; assay: Bioluminescence-based cytotoxicity assay, RCH-ACV target cells; type: cell-based, human; conditions: 100 nM dasatinib; t=8 hours; >90% untreated
# [6] = system: PD-1 on CD19 CAR/4-1BB T cells; assay: Surface expression of PD-1 on human CAR-T cells by flow cytometry, intermittent dasatinib; type: in vivo, NSG mice; conditions: intermittently treated (CAR/+)
# Experimental: In brief, cohorts of 1-12 mice were inoculated with 1×10^6 firefly-luciferase_GFP-transduced Raji tumor cells on day 0. […] Serial bioluminescence imaging was performed to determine tumor burden on day 7, 9 and 15.
# Based on the mouse model introduced in Example 11 (FIG. 21A), the inventors analyzed the surface expression of PD-1 on human CAR-T cells in bone marrow (BM), peripheral blood (PB) and spleen (SP) by flow cytometry.
# [7] = dasatinib added at 2 hours after the start of the co-culture, 24 h
smiles,measurement,setting,value
Cc1nc(Nc2ncc(C(=O)Nc3c(C)cccc3Cl)s2)cc(N2CCN(CCO)CC2)n1 [dasatinib],specific lysis of target cells,"[1]; dasatinib 25 nM, up to t=5 h, 73% by non-dasatinib treated",less than 2%
same,specific lysis of target cells,"[1]; dasatinib 50 nM, any given timepoint, 94% by non-dasatinib treated at t=10 h",less than 2%
same,residual specific IFN-γ production compared to non-dasatinib treated CAR-T cells,[2],less than 4.5%
same,specific lysis of target cells,"[3]; dasatinib 20, 40 and 60 nM, t=6 h, 67% by non-dasatinib treated",less than 21%
same,residual specific lysis of target cells,"[3]; dasatinib 20, 40 and 60 nM, t=12 h, 85% by non-dasatinib treated",less than 35%
same,specific lysis of target cells,"[3]; dasatinib ≥80 nM, any given time point, 85% by non-dasatinib treated at t=12 h",less than 3%
same,dead CAR-T cells (Annexin-V-positive/7-AAD-positive),"[4]; 100 nM dasatinib present, 24 h with K562/CD19, 8.4% in absence",6.9%
same,alive CAR-T cells (Annexin-V-negative/7-AAD-negative),"[4]; 100 nM dasatinib present, 24 h with K562/CD19, 25.4% in absence",47.4%
same,apoptotic CAR-T cells (Annexin-V-positive/7-AAD-negative),"[4]; 100 nM dasatinib present, 24 h with K562/CD19, 66.2% in absence",45.7%
same,alive CAR-T cells,[4]; [7],41.7%
same,apoptotic CAR-T cells,[4]; [7],51.3%
same,dead CAR-T cells,[4]; [7],7%
same,specific lysis,[5],< 5%
same,"PD-1 mean fluorescence intensity (MFI) on CAR-T cells, peripheral blood",[6]; 4110 not exposed,2775
same,"PD-1 mean fluorescence intensity (MFI) on CAR-T cells, spleen",[6]; 4318 not exposed,23652
same,"PD-1 mean fluorescence intensity (MFI) on CAR-T cells, bone marrow",[6]; 9461 not exposed,7025
